Data as given in PubChem BioAssay (NCI).
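In this assay, cells in 96-well plates receive the compound at five concentrations for 48 hours. Endpoints are linearly interpolated between the surrounding concentrations. Here, GI50 denotes the concentration required for 50% inhibition of growth. TGI: total growth inhibition.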

What was measured:
Test in all cases: NCI anticancer screen, dose series, 48 h
CAKI-1 renal = tested on: CAKI-1 renal
PC-3 prostate = tested on: PC-3 prostate
UO-31 renal = tested on: UO-31 renal
MDA-MB-435 = tested on: MDA-MB-435
OVCAR-4 ovarian = tested on: OVCAR-4 ovarian
RPMI-8226 leukemia = tested on: RPMI-8226 leukemia
U251 CNS = tested on: U251 CNS
OVCAR-5 ovarian = tested on: OVCAR-5 ovarian
K-562 leukemia = tested on: K-562 leukemia
UACC-62 melanoma = tested on: UACC-62 melanoma
HS 578T breast = tested on: HS 578T breast
HCT-15 colon = tested on: HCT-15 colon
CCRF-CEM leukemia = tested on: CCRF-CEM leukemia
A549 NSCLC = tested on: A549 NSCLC
SW-620 colon = tested on: SW-620 colon
RXF 393 renal = tested on: RXF 393 renal
HOP-62 NSCLC = tested on: HOP-62 NSCLC
NCI/ADR-RES ovarian = tested on: NCI/ADR-RES ovarian
BT-549 breast = tested on: BT-549 breast
T-47D breast = tested on: T-47D breast
SNB-19 CNS = tested on: SNB-19 CNS
SF-539 CNS = tested on: SF-539 CNS
OVCAR-8 ovarian = tested on: OVCAR-8 ovarian
KM12 colon = tested on: KM12 colon
SF-295 CNS = tested on: SF-295 CNS
HCC-2998 colon = tested on: HCC-2998 colon
M14 melanoma = tested on: M14 melanoma
DU-145 prostate = tested on: DU-145 prostate
SK-MEL-5 melanoma = tested on: SK-MEL-5 melanoma
A498 renal = tested on: A498 renal
HT29 colon = tested on: HT29 colon
NCI-H522 lung = tested on: NCI-H522 lung
OVCAR-3 ovarian = tested on: OVCAR-3 ovarian
TK-10 renal = tested on: TK-10 renal
HOP-92 NSCLC = tested on: HOP-92 NSCLC
HCT-116 colon = tested on: HCT-116 colon
MOLT-4 leukemia = tested on: MOLT-4 leukemia
SF-268 CNS = tested on: SF-268 CNS
EKVX NSCLC = tested on: EKVX NSCLC
NCI-H226 lung = tested on: NCI-H226 lung
SNB-75 CNS = tested on: SNB-75 CNS
SR leukemia = tested on: SR leukemia
HL-60(TB) leukemia = tested on: HL-60(TB) leukemia
SK-OV-3 ovarian = tested on: SK-OV-3 ovarian
SK-MEL-2 melanoma = tested on: SK-MEL-2 melanoma
UACC-257 melanoma = tested on: UACC-257 melanoma
COLO 205 colon = tested on: COLO 205 colon
786-0 renal = tested on: 786-0 renal
SN12C renal = tested on: SN12C renal
IGROV1 ovarian = tested on: IGROV1 ovarian
NCI-H23 lung = tested on: NCI-H23 lung
MDA-MB-231 breast = tested on: MDA-MB-231 breast
ACHN renal = tested on: ACHN renal
MALME-3M melanoma = tested on: MALME-3M melanoma
SK-MEL-28 melanoma = tested on: SK-MEL-28 melanoma
MCF7 breast = tested on: MCF7 breast
LOX IMVI melanoma = tested on: LOX IMVI melanoma
NCI-H460 lung = tested on: NCI-H460 lung

SMILES: Cc1ccccc1/C=C1\CN(C(=O)OC(C)(C)C)C/C(=C\c2ccccc2C)C1=O
- GI50 (CAKI-1 renal): 2.06 µM
- TGI (CAKI-1 renal): 4.25 µM
- GI50 (PC-3 prostate): 2.5 µM
- TGI (PC-3 prostate): 7.69 µM
- GI50 (UO-31 renal): 1.63 µM
- TGI (UO-31 renal): 3.09 µM
- GI50 (MDA-MB-435): 2.51 µM
- TGI (MDA-MB-435): 5.45 µM
- GI50 (OVCAR-4 ovarian): 2.6 µM
- TGI (OVCAR-4 ovarian): 14.1 µM
- GI50 (RPMI-8226 leukemia): 1.66 µM
- TGI (RPMI-8226 leukemia): 5.37 µM
- GI50 (U251 CNS): 1.82 µM
- TGI (U251 CNS): 3.95 µM
- GI50 (OVCAR-5 ovarian): 2.16 µM
- TGI (OVCAR-5 ovarian): 4.86 µM
- GI50 (K-562 leukemia): 2.86 µM
- TGI (K-562 leukemia): > 100 µM
- GI50 (UACC-62 melanoma): 2 µM
- TGI (UACC-62 melanoma): 4.42 µM
- GI50 (HS 578T breast): 3.99 µM
- TGI (HS 578T breast): 83.1 µM
- GI50 (HCT-15 colon): 2.1 µM
- TGI (HCT-15 colon): 5.76 µM
- GI50 (CCRF-CEM leukemia): 2.9 µM
- TGI (CCRF-CEM leukemia): 12.6 µM
- GI50 (A549 NSCLC): 2.82 µM
- TGI (A549 NSCLC): 9.17 µM
- GI50 (SW-620 colon): 2.99 µM
- TGI (SW-620 colon): 7.07 µM
- GI50 (RXF 393 renal): 1.66 µM
- TGI (RXF 393 renal): 3.21 µM
- GI50 (HOP-62 NSCLC): 3.43 µM
- TGI (HOP-62 NSCLC): 11.3 µM
- GI50 (NCI/ADR-RES ovarian): 3.49 µM
- TGI (NCI/ADR-RES ovarian): 65.1 µM
- GI50 (BT-549 breast): 2.3 µM
- TGI (BT-549 breast): 6.61 µM
- GI50 (T-47D breast): 3.78 µM
- TGI (T-47D breast): > 100 µM
- GI50 (SNB-19 CNS): 1.81 µM
- TGI (SNB-19 CNS): 4.38 µM
- GI50 (SF-539 CNS): 1.94 µM
- TGI (SF-539 CNS): 3.64 µM
- GI50 (OVCAR-8 ovarian): 3.49 µM
- TGI (OVCAR-8 ovarian): > 100 µM
- GI50 (KM12 colon): 2.03 µM
- TGI (KM12 colon): 4.68 µM
- GI50 (SF-295 CNS): 2.19 µM
- TGI (SF-295 CNS): 5.37 µM
- GI50 (HCC-2998 colon): 1.94 µM
- TGI (HCC-2998 colon): 3.78 µM
- GI50 (M14 melanoma): 2.97 µM
- TGI (M14 melanoma): 13.5 µM
- GI50 (DU-145 prostate): 2.37 µM
- TGI (DU-145 prostate): 5.52 µM
- GI50 (SK-MEL-5 melanoma): 2.12 µM
- TGI (SK-MEL-5 melanoma): 4.49 µM
- GI50 (A498 renal): 3 µM
- TGI (A498 renal): 6.24 µM
- GI50 (HT29 colon): 2.86 µM
- TGI (HT29 colon): 7.61 µM
- GI50 (NCI-H522 lung): 2.2 µM
- TGI (NCI-H522 lung): 6.63 µM
- GI50 (OVCAR-3 ovarian): 1.85 µM
- TGI (OVCAR-3 ovarian): 3.65 µM
- GI50 (TK-10 renal): 3.65 µM
- TGI (TK-10 renal): 15 µM
- GI50 (HOP-92 NSCLC): 1.9 µM
- TGI (HOP-92 NSCLC): 5.75 µM
- GI50 (HCT-116 colon): 1.9 µM
- TGI (HCT-116 colon): 4.57 µM
- GI50 (MOLT-4 leukemia): 2.9 µM
- TGI (MOLT-4 leukemia): 21.8 µM
- GI50 (SF-268 CNS): 2.95 µM
- TGI (SF-268 CNS): 10.6 µM
- GI50 (EKVX NSCLC): 2.34 µM
- TGI (EKVX NSCLC): 6.88 µM
- GI50 (NCI-H226 lung): 2.01 µM
- TGI (NCI-H226 lung): 4.14 µM
- GI50 (SNB-75 CNS): 2.71 µM
- TGI (SNB-75 CNS): 9.34 µM
- GI50 (SR leukemia): 1.89 µM
- TGI (SR leukemia): > 100 µM
- GI50 (HL-60(TB) leukemia): 2.47 µM
- TGI (HL-60(TB) leukemia): 8.8 µM
- GI50 (SK-OV-3 ovarian): 5.77 µM
- TGI (SK-OV-3 ovarian): 70.5 µM
- GI50 (SK-MEL-2 melanoma): 10.1 µM
- TGI (SK-MEL-2 melanoma): 26.5 µM
- GI50 (UACC-257 melanoma): 3.12 µM
- TGI (UACC-257 melanoma): 9.92 µM
- GI50 (COLO 205 colon): 2.22 µM
- TGI (COLO 205 colon): 5.25 µM
- GI50 (786-0 renal): 1.84 µM
- TGI (786-0 renal): 3.52 µM
- GI50 (SN12C renal): 2.7 µM
- TGI (SN12C renal): 6.43 µM
- GI50 (IGROV1 ovarian): 2.26 µM
- TGI (IGROV1 ovarian): 6.26 µM
- GI50 (NCI-H23 lung): 2.2 µM
- TGI (NCI-H23 lung): 4.99 µM
- GI50 (MDA-MB-231 breast): 3.49 µM
- TGI (MDA-MB-231 breast): 12.6 µM
- GI50 (ACHN renal): 2.7 µM
- TGI (ACHN renal): 7.15 µM
- GI50 (MALME-3M melanoma): 1.81 µM
- TGI (MALME-3M melanoma): 3.6 µM
- GI50 (SK-MEL-28 melanoma): 2.8 µM
- TGI (SK-MEL-28 melanoma): 6.43 µM
- GI50 (MCF7 breast): 2.21 µM
- TGI (MCF7 breast): > 100 µM
- GI50 (LOX IMVI melanoma): 1.88 µM
- TGI (LOX IMVI melanoma): 3.6 µM
- GI50 (NCI-H460 lung): 2.12 µM
- TGI (NCI-H460 lung): 4.27 µM
